biological target: Aldo-keto reductase family 1 member B1 (Rattus norvegicus, UniProt P07943); test: Inhibition of Rattus norvegicus (rat) lens aldose reductase

Q: With `C[C@H]1COC2=C1C(=O)C(=O)c1c2ccc2c1CCCC2(C)C` [CRYPTOTANSHINONE] as the compound, how does the IC50 read?
A: 4.79 µM

Q: How did the IC50 turn out when `CCCC/C=C/CCCCCCCCCC1=C(OC)C(=O)C=C(OC)C1=O` was run?
A: 55 µM

Q: For `Cc1cccc2c3c(ccc12)C1=C(C(=O)C3=O)[C@@H](C)CO1` [DIHYDROTANSHINONE I], which IC50 is on record?
A: 1.2 µM

Q: How did the IC50 turn out when `CC1(C)CC2C1CC[C@@]1(C)C[C@]2(O)CC[C@@H]1O` (some centres undefined) was run?
A: 44.7 µM

Q: Which IC50 does the source give for `Cc1cc(C(=O)O)c(O)c2c1[C@H](C)[C@@H](C)OC2` here?
A: 12 µM

Q: With `O=C1C(O)=CC(=O)c2c(O)cc(O)cc21` [FLAVIOLIN] as the compound, how does the IC50 read?
A: 43.7 µM

Q: `CCOC(=O)C1Cc2c(oc(=O)c3cc(O)c(O)c(O)c23)C1=O` (centres undefined) was tested. Which IC50 did it give?
A: 5.01 µM

Q: For `COC(=O)c1cc2cc3cc4cc(CC(=O)O)c(C(=O)/C=C(\O)c5ccccc5O)c(OC)c4c(OC)c3c(O)c2c(=O)o1`, which IC50 is on record?
A: 0.00129 µM

Q: Which IC50 does the source give for `O=C(/C=C/c1ccc(O)c(O)c1)O[C@H](Cc1ccc(O)c(O)c1)C(=O)O` [ROSMARINIC ACID] here?
A: 3.89 µM

Q: Which IC50 does the source give for `COc1cc([C@H]2O[C@@H](c3ccc(O)c(OC)c3)[C@H](C)[C@@H]2C)ccc1O` [NECTANDRIN B] here?
A: 38 µM

Q: Which IC50 does the source give for `CC(=O)c1c(O)cc(O)cc1O[C@@H]1OC(COC(=O)c2cc(O)c(O)c(O)c2)[C@H](O)[C@H](O)[C@@H]1O` (some centres undefined) here?
A: 28.8 µM

Q: For `CC(=O)C[C@@]1(O)C(=O)C2=C(OC[C@@H]2C)c2ccc3c(c21)CCCC3(C)C`, which IC50 is on record?
A: 1.74 µM

Q: `O=CC(O)C(O)(Oc1ccc(/C=C/C(=O)O[C@H](Cc2ccc(O)c(O)c2)C(=O)O)cc1O)C(O)C(O)CO` (some centres undefined) was tested. Which IC50 did it give?
A: 3.16 µM

Q: Which IC50 does the source give for `COc1cc([C@H]2O[C@@H](c3ccc(O)c(OC)c3)[C@@H](C)[C@H]2C)ccc1O` [TETRAHYDROFUROGUAIACIN B] here?
A: 21.4 µM

Q: Which IC50 does the source give for `CC(=O)C1=C(O)C2=CO[C@H](C)[C@@H](C)C2=C(C)C1=O` here?
A: 8.71 µM

Q: With `COc1cc(C(=O)/C(C)=C(/C)C(=O)c2ccc(O)c(OC)c2)ccc1O` as the compound, how does the IC50 read?
A: 100 µM

Q: Which IC50 does the source give for `COc1cc(/C=C(/C)[C@H](C)Cc2ccc(O)c(OC)c2)ccc1O` here?
A: 35.5 µM

Q: How did the IC50 turn out when `C=C(C)C1CCC(COC2O[C@H](CO)[C@H](O)[C@@H](O)C2O)CC1` (some centres undefined) was run?
A: 28.2 µM

Q: For `C=C(C)[C@@H]1CC=C(COC2OC(CO)[C@H](O)[C@H](O)[C@H]2O)CC1` (some centres undefined), which IC50 is on record?
A: 55 µM

Q: How did the IC50 turn out when `CC1(C)C2CC[C@]3(C)C(CC=C4C5C[C@](C)(C(=O)O)C[C@H](O)[C@]5(C)CC[C@]43C)[C@@]2(C)CC[C@@H]1O` (some centres undefined) was run?
A: 75.9 µM

Q: For `CC(=O)C[C@@]1(O)C(=O)C2=C(OC[C@@H]2C)c2ccc3c(C)cccc3c21`, which IC50 is on record?
A: 0.1 µM

Q: With `CC(C(=O)O)N1Cc2c(cc3c(c2O)CC([C@@H](C)C(=O)O)O3)C1=O` (some centres undefined) as the compound, how does the IC50 read?
A: 4.47 µM

Q: Which IC50 does the source give for `COc1cc2c(c(OC)c1C)COC(C)C2` (centres undefined) [6,8-DIMETHOXY-3,7-DIMETHYLISOCHROMAN] here?
A: 100 µM

Q: With `CC(C)c1ccc2c(c1)CCC1[C@@](C)(CO)CCC[C@]21C` (some centres undefined) as the compound, how does the IC50 read?
A: 38.9 µM

Q: `C[C@@H](C(=O)O)C1Cc2c(cc3c(c2O)CN(CC(=O)O)C3=O)O1` (some centres undefined) was tested. Which IC50 did it give?
A: 1.26 µM

Q: With `Cc1coc2c1C(=O)C(=O)c1c-2ccc2c(C)cccc12` [TANSHINONE I] as the compound, how does the IC50 read?
A: 10 µM

Q: `C=C(C)C1CCC(CO[C@H]2OC(CO)C(O)[C@H](O)[C@@H]2O)CC1` (some centres undefined) was tested. Which IC50 did it give?
A: 46.8 µM

Q: How did the IC50 turn out when `O=C(/C=C/c1ccc(O)c2c1[C@H](C(=O)O[C@@H](Cc1ccc(O)c(O)c1)C(=O)O)[C@@H](c1ccc(O)c(O)c1)O2)O[C@H](Cc1ccc(O)c(O)c1)C(=O)O` was run?
A: 2.63 µM

Q: How did the IC50 turn out when `C[C@@H](C(=O)O)C1Cc2c(cc3c(c2O)C(=O)N(CC(=O)O)C3=O)O1` (some centres undefined) was run?
A: 0.447 µM

Q: How did the IC50 turn out when `COc1cc2c(c(O)c1C)COC(C)C2` (centres undefined) [6-METHOXY-3,7-DIMETHYLISOCHROMAN-8-OL] was run?
A: 33.1 µM

Q: For `COc1cc2c(c(OC)c1OC)-c1c(cc(O)c(OC)c1OC)C[C@H](C)[C@H](C)[C@H]2O`, which IC50 is on record?
A: 38 µM

Q: For `CC(C)c1ccc2c(c1)CCC1[C@@](C)(C(=O)O)CCC[C@]21C` (some centres undefined), which IC50 is on record?
A: 35.5 µM

Q: For `COc1cc([C@H]2O[C@H](c3ccc(O)c(OC)c3)[C@@H](C)[C@H]2C)ccc1O`, which IC50 is on record?
A: 25.1 µM

Q: Which IC50 does the source give for `Cc1cccc2c3c(ccc12)C(=O)C(C(C)CO)=C(O)C3=O` (centres undefined) [DANSHENXINKUN A] here?
A: 0.871 µM

Q: `O=C1CC(O)C1=O` (centres undefined) was tested. Which IC50 did it give?
A: 19.1 µM

Q: For `O=C(/C=C/c1ccc(O)c(O)c1)OC1C[C@](O)(C(=O)O)C[C@H](O)[C@@H]1O` (some centres undefined), which IC50 is on record?
A: 1.82 µM

Q: `C[C@@H](C(=O)O)C1Cc2c(cc3c(c2O)C(=O)NC3=O)O1` (some centres undefined) was tested. Which IC50 did it give?
A: 5.37 µM

Q: With `C=C(C)[C@@H]1CC=C(COC2OC(CO)[C@H](O)[C@@H](O)[C@@H]2O)CC1` (some centres undefined) as the compound, how does the IC50 read?
A: 14.5 µM

Q: How did the IC50 turn out when `CC(C(=O)O)N1C(=O)c2cc3c(c(O)c2C1=O)CC([C@@H](C)C(=O)O)O3` (some centres undefined) was run?
A: 2 µM

Q: `CNC(=O)Oc1c(C)c(OC)cc2c1COC(C)C2` (centres undefined) was tested. Which IC50 did it give?
A: 34.7 µM

Q: How did the IC50 turn out when `CC1(C)C2CC[C@]3(C)C(CC=C4C5C[C@](C)(C(=O)O)C[C@@H](O)[C@]5(C)CC[C@]43C)[C@@]2(C)CC[C@@H]1O` (some centres undefined) was run?
A: 55 µM

Q: Which IC50 does the source give for `CCOc1ccc(C(=O)/C(C)=C(/C)C(=O)c2ccc(O)c(OC)c2)cc1OC` here?
A: 34.7 µM

Q: With `CC(=O)O[C@H]1C[C@]2(CO)C3CC[C@@]4(C)C(C(=O)CC(=O)[C@@H]4C)[C@]3(C)CC[C@@]2(C)C2CC(C)(C)CC[C@@]21C` (some centres undefined) as the compound, how does the IC50 read?
A: 47.9 µM

Q: `CC1(C)C[C@H](O)[C@]23CC[C@@H](O)[C@](C)(CCC12)C3` (some centres undefined) was tested. Which IC50 did it give?
A: 95.5 µM

Q: How did the IC50 turn out when `O=C(/C=C/c1ccc(O[C@@H](C(=O)O)[C@@H](O)c2ccc(O)c(O)c2)c(O)c1)O[C@H](Cc1ccc(O)c(O)c1)C(=O)O` was run?
A: 2.82 µM

Q: Which IC50 does the source give for `COc1cc2c(=O)oc3c(O)c(O)cc4c(=O)oc(c1O)c2c34` here?
A: 10 µM

Q: Which IC50 does the source give for `O=C(O)C1Cc2c(oc(=O)c3cc(O)c(O)c(O)c23)C1=O` (centres undefined) here?
A: 2.4 µM

Q: `O=Cc1ccc(CO)o1` [AES-103] was tested. Which IC50 did it give?
A: 182 µM

Q: Which IC50 does the source give for `CC(CCC(=O)O)N1Cc2c(cc3c(c2O)CC([C@@H](C)C(=O)O)O3)C1=O` (some centres undefined) here?
A: 12 µM

Source: ChEMBL document CHEMBL3045136, “QSAR and flexible docking studies of some aldose reductase inhibitors obtained from natural origin” (Med Chem Res, 2012)
